Broadly, the Ki is the equilibrium dissociation constant of an inhibitor or competing ligand from its target. A high value points to weaker binding.

The text below walks through data of ChEMBL document CHEMBL1153677, “A novel series of 2-aminotetralins with high affinity and selectivity for the dopamine D3 receptor” (Bioorg Med Chem Lett, 1997).

Assay [1] has as its target D(2) dopamine receptor (Homo sapiens, UniProt P14416). In words: Displacement of [125I]iodosulpiride from human Dopamine receptor D2 expressed in CHO cells. In kind it is cell-based.
Assay [2] deals with D(3) dopamine receptor (Homo sapiens, UniProt P35462). The assay can be described thus: Displacement of [125I]iodosulpiride from human Dopamine receptor D3 expressed in CHO cells. Format: cell-based. In general terms: In a radioligand displacement assay an active substance lowers the binding of a labelled ligand.
Sequence of D(3) dopamine receptor (P35462 whole entry): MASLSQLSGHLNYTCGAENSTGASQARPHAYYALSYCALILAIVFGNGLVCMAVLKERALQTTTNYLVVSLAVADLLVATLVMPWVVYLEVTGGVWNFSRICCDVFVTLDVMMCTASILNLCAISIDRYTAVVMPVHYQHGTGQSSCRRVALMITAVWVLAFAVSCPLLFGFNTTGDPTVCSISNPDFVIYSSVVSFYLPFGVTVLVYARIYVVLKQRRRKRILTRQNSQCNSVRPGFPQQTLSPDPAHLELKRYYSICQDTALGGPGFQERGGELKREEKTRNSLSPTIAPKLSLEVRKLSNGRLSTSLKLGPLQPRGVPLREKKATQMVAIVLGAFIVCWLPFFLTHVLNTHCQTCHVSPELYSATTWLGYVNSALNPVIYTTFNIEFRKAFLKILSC
The target of assay [3] is T1, 5-hydroxytryptamine receptor 1A (Mus musculus, UniProt Q64264).
T1 sequence (Q64264 whole entry): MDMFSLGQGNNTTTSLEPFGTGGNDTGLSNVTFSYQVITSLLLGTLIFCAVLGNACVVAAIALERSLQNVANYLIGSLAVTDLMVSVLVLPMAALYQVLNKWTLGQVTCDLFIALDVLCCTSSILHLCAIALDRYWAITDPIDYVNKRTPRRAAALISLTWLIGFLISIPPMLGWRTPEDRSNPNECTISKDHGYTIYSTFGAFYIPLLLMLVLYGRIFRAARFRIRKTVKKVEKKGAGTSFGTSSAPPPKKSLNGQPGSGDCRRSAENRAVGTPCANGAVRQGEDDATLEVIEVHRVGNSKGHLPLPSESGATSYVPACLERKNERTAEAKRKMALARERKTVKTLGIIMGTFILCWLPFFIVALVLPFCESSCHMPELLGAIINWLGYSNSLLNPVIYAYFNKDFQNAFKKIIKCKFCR
The assay can be described thus: Ability to displace [125I]iodosulpiride from 5-hydroxytryptamine 1A receptor.

Sequence of D(2) dopamine receptor (P14416 whole entry): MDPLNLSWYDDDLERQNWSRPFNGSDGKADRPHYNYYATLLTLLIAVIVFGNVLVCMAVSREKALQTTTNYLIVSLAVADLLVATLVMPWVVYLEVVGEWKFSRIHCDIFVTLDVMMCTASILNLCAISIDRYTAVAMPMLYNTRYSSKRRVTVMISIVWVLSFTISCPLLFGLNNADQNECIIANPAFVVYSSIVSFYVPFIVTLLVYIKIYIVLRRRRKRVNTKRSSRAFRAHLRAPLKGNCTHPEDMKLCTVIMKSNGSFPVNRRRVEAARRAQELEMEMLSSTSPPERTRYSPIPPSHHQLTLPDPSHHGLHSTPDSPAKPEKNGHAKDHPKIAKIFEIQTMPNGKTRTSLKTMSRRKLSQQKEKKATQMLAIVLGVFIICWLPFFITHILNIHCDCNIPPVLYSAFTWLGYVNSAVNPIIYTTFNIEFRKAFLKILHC

For the molecule `CCCN(CCCCNC(=O)c1ccc(-c2ccccc2)cc1)C1CCc2c(Br)cccc2C1` (stereo not given), the Ki is 251 nM in assay [1] and 1.26 nM in assay [2].

Consider `CCCN(CCCCNC(=O)c1ccc(-c2ccccc2)cc1)C1CCc2c(Cl)cccc2C1` (stereo not given), for which the values for the Ki in assay [1] and in assay [2] were 398 nM and 1.58 nM, respectively.

For the molecule `CCCN(CCCCNC(=O)c1ccc(-c2ccccc2)cc1)C1CCc2c(C#N)cccc2C1` (stereo not given), the Ki in assay [1] is 100 nM; in assay [2], 0.501 nM.

For `CCCN(CCCCNC(=O)c1ccc(-c2ccccc2)cc1)C1CCc2c(cccc2OC)C1` (stereo not given), the results for the Ki in assay [1] and in assay [2] were 126 nM and 0.794 nM, respectively.

Take `CN(CCCCNC(=O)c1ccc(-c2ccccc2)cc1)C1CCc2c(O)cccc2C1` (stereo not given): the Ki in assay [1] was 126 nM; in assay [2], 2.51 nM.

As to `CCCN(CCCCNC(=O)c1ccc(-c2ccccc2)cc1)C1CCc2c(cccc2OCC2CC2)C1` (stereo not given), the values for the Ki in assay [1] and in assay [2] were 794 nM and 2.51 nM, respectively.

As for `CCCN(CCCCNC(=O)c1ccc(-c2ccccc2)cc1)C1CCc2c(cccc2OS(=O)(=O)C(F)(F)F)C1` (stereo not given), the inhibition constant Ki in assay [1] was 398 nM; in assay [2] it was 1.58 nM.

`COc1ccccc1N1CCN(CCCCNC(=O)c2ccc(-c3ccc(C(C)=O)cc3)cc2)CC1` gave a Ki in assay [3] of 3.16 nM.

For `COc1cccc2c1CCC(N(C)CCCCNC(=O)c1ccc(-c3ccccc3)cc1)C2` (stereo not given), the Ki in assay [1] is 316 nM; in assay [2], 12.6 nM.

With `CCCN(CCCCNC(=O)c1ccc(-c2ccccc2)cc1)C1CCc2ccccc2C1` (stereo not given), the Ki in assay [1] is 316 nM; in assay [2], 1.58 nM.

On to `CCCN(CCCCNC(=O)c1ccc(-c2ccccc2)cc1)C1CCc2c(cccc2C(N)=O)C1` (stereo not given), for which the Ki in assay [1] is 631 nM; in assay [2], 3.98 nM.

Take `CCCN(CCCCNC(=O)c1ccc(-c2ccccc2)cc1)C1CCc2c(cccc2OS(C)(=O)=O)C1` (stereo not given): the figures for the inhibitory constant (Ki) in assay [1] and in assay [2] were 251 nM and 1.26 nM, respectively.

As to `CCCN(CCCCNC(=O)c1ccc(-c2ccccc2)cc1)C1CCc2c(O)cccc2C1` (stereo not given), the Ki in assay [1] is 25.1 nM; in assay [2], 0.2 nM.
